This passage reports IC50 results from ChEMBL document CHEMBL1129202, “Palladium-catalysed synthesis of some biologically active 5, 6-disubstituted uracils” (Bioorg Med Chem Lett, 1996).

This experiment concerns CCRF-CEM. As to the kind of experiment: In vitro cytotoxic activity against CCRF-CEM human lymphoblastoid cells in culture. The format is functional, cell-based.

Take `Cc1ccc(C(=O)/C=C/c2nc(O)nc(O)c2Cl)cc1`: half-maximal inhibition (IC50) required 12.2 µM. With `Cc1ccc(C(=O)/C=C/c2nc(O)nc(O)c2Br)cc1`, the midpoint of inhibition, the IC50, lay at 2.6 µM. For `Cc1ccc(C(=O)/C=C/c2nc(O)nc(O)c2I)cc1`, the IC50 (in general, the point on the concentration scale where inhibition reaches its midpoint) stood at 1.4 µM. Against the preceding compound, the IC50 is about 1.9-fold lower. Next, `COc1ccc(C(=O)/C=C/c2cc(O)nc(O)n2)cc1`: 2.2 µM; `Cc1ccc(C(=O)/C=C/c2cc(O)nc(O)n2)cc1`: 1.8 µM.
